Our source for the Ki values is patent US20100056565A1, “Heterocyclic Derivatives as M3 Muscarinic Receptors” (priority 2007, published 2010).

By Ki is commonly meant the equilibrium dissociation constant of an inhibitor or competing ligand from its target.

Counter-ions that a name gives are not always drawn.

For the experiment, the target named is T1, Recombinant human M3 receptor (Homo sapiens, UniProt P20309).
T1 construct: expressed in transfected cells; host or cells: CHO-K1 cells (membranes)
T1 sequence (P20309 whole entry): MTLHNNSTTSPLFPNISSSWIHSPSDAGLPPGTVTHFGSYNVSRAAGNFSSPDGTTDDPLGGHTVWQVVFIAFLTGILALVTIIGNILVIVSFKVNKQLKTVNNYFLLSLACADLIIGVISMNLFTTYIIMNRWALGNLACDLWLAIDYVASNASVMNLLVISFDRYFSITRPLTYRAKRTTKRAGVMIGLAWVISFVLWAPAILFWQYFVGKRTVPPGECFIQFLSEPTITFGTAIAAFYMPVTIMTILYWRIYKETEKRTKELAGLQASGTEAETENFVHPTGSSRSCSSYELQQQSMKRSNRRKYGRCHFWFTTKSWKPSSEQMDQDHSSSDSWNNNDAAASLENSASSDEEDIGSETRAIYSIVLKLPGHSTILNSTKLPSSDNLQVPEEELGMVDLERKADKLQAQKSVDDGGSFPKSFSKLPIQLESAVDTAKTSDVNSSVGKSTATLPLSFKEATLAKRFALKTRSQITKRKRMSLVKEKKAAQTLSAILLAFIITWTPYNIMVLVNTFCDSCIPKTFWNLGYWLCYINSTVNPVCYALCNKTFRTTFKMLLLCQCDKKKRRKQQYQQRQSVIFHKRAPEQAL
As to the kind of experiment: biochemical. The conditions noted are these: SPA format; read-out: M3 Ki (SPA format). Format: binding. The protocol: Recombinant human M3 receptor was expressed in CHO-K1 cells. Cell membranes were prepared and binding of [3H]-N-methyl scopolamine ([3H]-NMS) and compounds was assessed by a scintillation proximity assay (SPA). The incubation time was 16 hours at room temperature in the presence of 1% (v/v) DMSO. The assay was performed in white 96 well clear-bottomed NBS plates (Corning). Prior to the assay, the CHO cell membranes containing M3 receptor were coated onto SPA WGA (Wheat germ agglutinin) beads (GE Healthcare). Non specific binding was determined in the presence of 1 μM Atropine.
Radioactivity was measured on a Microbeta scintillation counter (PerkinElmer) using a 3H protocol with a 2 minutes per well read time. […] Concentration dependent inhibition of [3H]-NMS binding by compounds was expressed as pIC50.
Regarding `OC(c1ccccc1)(c1ccccc1)c1ncc(C[N+]23CCC(CC2)[C@@H](Oc2ccsc2)C3)o1` [Example 114, (R)-1-[2-(Hydroxy-diphenyl-methyl)-oxazol-5-ylmethyl]-3-(thiophen-3-yloxy)-1-azonia-bicyclo[2.2.2]octane; bromide], the Ki was 5 to 20 nM. For the molecule `O[C@](c1ccccc1)(c1nnc(C[N+]23CCC(CC2)[C@@H](Sc2ccccc2)C3)o1)C1CCCCC1` [Example 71, 1-[5-((R)—Cyclohexyl-hydroxy-phenyl-methyl)-[1,3,4]oxadiazol-2-ylmethyl]-3-phenylsulfanyl-1-azonia-bicyclo[2.2.2]octane; bromide], the Ki was < 5 nM. Turning to `N#Cc1cccc(O[C@H]2C[N+]3(Cc4cnc(C(O)(c5ccccc5)c5ccccc5)o4)CCC2CC3)c1` [Example 80, (R)-3-(3-cyano-phenoxy)-1-[2-(hydroxy-diphenyl-methyl)-oxazol-5-ylmethyl]-1-azonia-bicyclo[2.2.2]octane; bromide], the Ki is < 5 nM. `O[C@](c1ccccc1)(c1ncc(C[N+]23CCC(CC2)[C@@H](OCc2ccc(Cl)cc2)C3)o1)C1CCCCC1` [Example 23, (R)-3-(4-Chloro-benzyloxy)-1-[2-((R)-cyclohexyl-hydroxy-phenyl-methyl)-oxazol-5-ylmethyl]-1-azonia-bicyclo[2.2.2]octane; bromide]: the Ki is < 5 nM. For the molecule `OC(c1ccccc1)(c1ccccc1)c1ncc(C[N+]23CCC(CC2)[C@@H](Sc2ccc(F)cc2)C3)o1` [Example 97, (R)-3-(4-Fluoro-phenylsulfanyl)-1-[2-(hydroxy-diphenyl-methyl)-oxazol-5-ylmethyl]-1-azonia-bicyclo[2.2.2]octane; bromide], the Ki is < 5 nM. The value for `OC(c1ccccc1)(c1ccccc1)c1ncc(C[N+]23CCC(CC2)[C@@H](Oc2ccc(Cl)cc2)C3)o1` [Example 63, (R)-3-(4-Chloro-phenoxy)-1-[2-(hydroxy-diphenyl-methyl)-oxazol-5-ylmethyl]-1-azonia-bicyclo[2.2.2]octane; bromide] was < 5 nM; that for `OC(c1ccccc1)(c1ncc(C[N+]23CCC(CC2)C(CSc2ccccc2)C3)o1)C1CCC1` (single isomer, unassigned) [Example 122] was < 5 nM; that for `O[C@](c1ccccc1)(c1ncc(C[N+]23CCC(CC2)[C@H](Oc2ccccc2)C3)o1)C1CCCCC1` [Example 8, (S)-1-[2-((R)—Cyclohexyl-hydroxy-phenyl-methyl)-oxazol-5-ylmethyl]-3-phenoxy-1-azonia-bicyclo[2.2.2]octane; bromide] was 5 to 20 nM. `OC(c1ccccc1)(c1ccccc1)c1noc(C[N+]23CCC(CC2)[C@@H](Oc2cccc(C(F)(F)F)c2)C3)n1` [Example 137, (R)-1-[3-(Hydroxy-diphenyl-methyl)-[1,2,4]oxadiazol-5-ylmethyl]-3-(3-trifluoromethyl-phenoxy)-1-azonia-bicyclo[2.2.2]octane; chloride]: the Ki is < 5 nM. Take `O[C@](c1ccccc1)(c1ncc(C[N+]23CCC(CC2)[C@H](CSc2ccc(Cl)cc2)C3)o1)C1CCCCC1` [Example 110, (S)-3-(4-Chloro-phenylsulfanylmethyl)-1-[2-((R)cyclohexyl-hydroxy-phenyl-methyl)-oxazol-5-ylmethyl]-1-azonia-bicyclo[2.2.2]octane; bromide]: the Ki is < 5 nM.

As to `C=CCOCC1C[N+]2(Cc3cnc([C@](O)(c4ccccc4)C4CCCCC4)o3)CCC1CC2` (single isomer, unassigned) [Example 90, formate], the Ki fell in the range of 5 to 20 nM. Take `O[C@](c1ccccc1)(c1ncc(C[N+]23CCC(CC2)[C@@H](SCc2ccccc2)C3)o1)C1CCCCC1` [Example 41, (R)-3-Benzylsulfanyl-1-[2-((R)-cyclohexyl-hydroxy-phenyl-methyl)-oxazol-5-ylmethyl]-1-azonia-bicyclo[2.2.2]octane; bromide]: the Ki was < 5 nM. With `O[C@](c1ccccc1)(c1nnc(C[N+]23CCC(CC2)[C@@H](OCc2ccc(F)cc2)C3)o1)C1CCCCC1` [Example 140, (R)-1-[5-((R)—Cyclohexyl-hydroxy-phenyl-methyl)-[1,3,4]oxadiazol-2-ylmethyl]-3-(4-fluoro-benzyloxy)-1-azonia-bicyclo[2.2.2]octane; bromide], the Ki is < 5 nM. Consider `O[C@](c1ccccc1)(c1nnc(C[N+]23CCC(CC2)[C@@H](OCc2ccccc2)C3)o1)C1CCCCC1` [Example 56, (R)-3-benzyloxy-1-[5-((R)-cyclohexyl-hydroxy-phenyl-methyl)-[1,3,4]oxadiazol-2-ylmethyl]-1-azonia-bicyclo[2.2.2]octane; formate], for which the Ki is < 5 nM. `CC(C)=CCO[C@H]1C[N+]2(Cc3cnc([C@](O)(c4ccccc4)C4CCCCC4)o3)CCC1CC2` [Example 38, (R)-1-[2-((R)-cyclohexyl-hydroxy-phenyl-methyl)-oxazol-5-ylmethyl]-3-(3-methyl-but-2-enyloxy)-1-azonia-bicyclo[2.2.2]octane; formate]: the Ki is < 5 nM.

On to `OC(c1ccccc1)(c1ccccc1)c1noc(C[N+]23CCC(CC2)[C@@H](OCc2ccc(F)cc2)C3)n1` [Example 141, (R)-3-(4-Fluoro-benzyloxy)-1-[3-(hydroxy-diphenyl-methyl)-[1,2,4]oxadiazol-5-ylmethyl]-1-azonia-bicyclo[2.2.2]octane; chloride], for which the Ki was < 5 nM.

As for `N#Cc1ccc(CO[C@H]2C[N+]3(Cc4cnc([C@](O)(c5ccccc5)C5CCCCC5)o4)CCC2CC3)cc1` [Example 21, (R)-3-(4-cyano-benzyloxy)-1-[2-((R)-cyclohexyl-hydroxy-phenyl-methyl)-oxazol-5-ylmethyl]-1-azonia-bicyclo[2.2.2]octane; formate], the Ki is < 5 nM. For `OC(c1ccccc1)(c1ccccc1)c1ncc(C[N+]23CCC(CC2)C(COc2cccc(F)c2)C3)o1` (single isomer, unassigned) [Example 83, 3-(3-Fluoro-phenoxymethyl)-1-[2-(hydroxy-diphenyl-methyl)-oxazol-5-ylmethyl]-1-azonia-bicyclo[2.2.2]octane; bromide], the Ki is 5 to 20 nM. With `OC(c1ccccc1)(c1ccccc1)c1ncc(C[N+]23CCC(CC2)[C@@H](Oc2cc(Cl)cc(Cl)c2)C3)o1` [Example 74, (R)-3-(3,5-dichloro-phenoxy)-1-[2-(hydroxy-diphenyl-methyl)-oxazol-5-ylmethyl]-1-azonia-bicyclo[2.2.2]octane; bromide], the Ki was > 20 nM. For `OC(c1ccccc1)(c1cc(C[N+]23CCC(CC2)C(COc2ccccc2)C3)on1)C1CCCCC1` (single isomer, unassigned) [Example 91], the Ki is < 5 nM. For `O[C@](c1ccccc1)(c1ncc(C[N+]23CCC(CC2)[C@@H](Oc2cccc(F)c2)C3)o1)C1CCCCC1` [Example 67, (R)-1-[2-((R)—Cyclohexyl-hydroxy-phenyl-methyl)-oxazol-5-ylmethyl]-3-(3-fluoro-phenoxy)-1-azonia-bicyclo[2.2.2]octane; bromide] the value was < 5 nM; for `O[C@](c1ccccc1)(c1ncc(C[N+]23CCC(CC2)C(COc2cccc(F)c2)C3)o1)C1CCCCC1` (single isomer, unassigned) [Example 85], < 5 nM; for `Cc1ccc(O[C@H]2C[N+]3(Cc4cnc(C(O)(c5ccccc5)c5ccccc5)o4)CCC2CC3)cc1` [Example 58, (R)-1-[2-(Hydroxy-diphenyl-methyl)-oxazol-5-ylmethyl]-3-p-tolyloxy-1-azonia-bicyclo[2.2.2]octane; bromide], < 5 nM. Regarding `OC(c1ccccc1)(c1noc(C[N+]23CCC(CC2)[C@H](COc2ccccc2)C3)n1)C1CCCCC1` (single isomer, unassigned) [Example 144], the Ki is < 5 nM. Regarding `O[C@](c1ccccc1)(c1ncc(C[N+]23CCC(CC2)[C@@H](OCc2ccc(F)cc2)C3)o1)C1CCCCC1` [Example 32, (R)-1-[2-((R)—Cyclohexyl-hydroxy-phenyl-methyl)-oxazol-5-ylmethyl]-3-(4-fluoro-benzyloxy)-1-azonia-bicyclo[2.2.2]octane; bromide], the Ki was < 5 nM. With `O[C@](c1ccccc1)(c1ncc(C[N+]23CCC(CC2)[C@@H](Oc2ccccc2)C3)o1)C1CCCCC1` [Example 9, (R)-[2-((R)—Cyclohexyl-hydroxy-phenyl-methyl)-oxazol-5-ylmethyl]-3-phenoxy-1-azonia-bicyclo[2.2.2]octane; bromide], the Ki is < 5 nM. The value for `OC(c1ccccc1)(c1ccccc1)c1ncc(C[N+]23CCC(CC2)[C@@H](OCc2ccc(Cl)cc2)C3)o1` [Example 28, (R)-3-(4-Chloro-benzyloxy-1-[2-(hydroxy-diphenyl-methyl)-oxazol-5-ylmethyl]-1-azonia-bicyclo[2.2.2]octane; bromide] was 5 to 20 nM. `OC(c1ccccc1)(c1ccccc1)c1noc(C[N+]23CCC(CC2)[C@@H](Sc2ccccc2)C3)n1` [Example 118, (R)-1-[3-(Hydroxy-diphenyl-methyl)-[1,2,4]oxadiazol-5-ylmethyl]-3-phenylsulfanyl-1-azonia-bicyclo[2.2.2]octane; chloride]: the Ki was < 5 nM. For the molecule `OC(c1ccccc1)(c1ccccc1)c1noc(C[N+]23CCC(CC2)[C@@H](Oc2cccs2)C3)n1` [Example 116, (R)-1-[3-(Hydroxy-diphenyl-methyl)-[1,2,4]oxadiazol-5-ylmethyl]-3-(thiophen-2-yloxy)-1-azonia-bicyclo[2.2.2]octane; chloride], the Ki is < 5 nM. On to `O[C@](c1ccccc1)(c1ncc(C[N+]23CCC(CC2)[C@@H](OCCC2CCCCC2)C3)o1)C1CCCCC1` [Example 53, (R)-3-(2-cyclohexyl-ethoxy)-1-[2-((R)-cyclohexyl-hydroxy-phenyl-methyl)-oxazol-5-ylmethyl]-1-azonia-bicyclo[2.2.2]octane; formate], for which the Ki was < 5 nM.
